According to US20170105951A1, “COMBINATION THERAPY WITH THIOCOLCHICINE DERIVATIVES” (Abraxis BioScience, LLC, priority 2009, published 2017):

What was measured:
[1] = system: human colon (HT29) tumors; assay: Subcutaneous HT29 colon tumor xenograft, ABI-011 vs CA4P (Example 3); assay type: in vivo, athymic nude mice; details: CA4P 200 mg/kg, qd×4, IV
Protocol: (§1) Methods: The antiangiogenic and VDA effects of ABI-011 were examined in vitro using tubule formation assay with human umbilical vein endothelial cells (HUVEC) and in vivo using the standard chick embryonic chorioallantoic membrane (CAM) assay with 3-day old embryos (n=18). The shell-less quail embryonic CAM assay was used to determine the time course of VDAs (ABI-011 vs. combretastatin A4 Phosphate [CA4P]). Quail embryos (n=36) were exposed to ABI-011 (1 to 16 μg/ml) on day 7 and digital CAM images were acquired over a 60 min period for scoring VDA. Subcutaneous human colon (HT29) tumors were grown in athymic nude mice and treated intravenously (IV) with ABI-011 (20-40 mg/kg; q4d×3, IV) or CA4P (200 mg/kg; qd×4, IV). The animal weights and tumor measurements were recorded three times weekly and adverse observations recorded.

[2] = system: quail embryonic CAM vasculature; assay: Shell-less quail embryonic CAM assay, vascular disrupting activity; assay type: in vivo
Protocol: as §1

[3] = system: human HT29 colon cancer xenograft; assay: Subcutaneous HT29 colon tumor xenograft, antitumor activity (Example 1); assay type: in vivo, athymic nude mice; details: Avastin 8 mg/kg 2x/wk
Protocol: (§2) Methods: Subcutaneous human breast (MDA-MB-231), colon (HT29) and prostate (PC3) tumors were grown in athymic nude mice and treated intravenously (IV) with sub-optimal dose of ABI-011 alone at 20 mg/kg (q4d×3, q4d×2, or qd×1) and in combination with nab-paclitaxel (5 mg/kg, q4d×3, IV) or bevacizumab (8 mg/kg, 2×wkly, IP). The effect of dose, schedule, and sequence of combination regimen on therapeutic efficacy was tested. ABI-011 was administered 24 h before, concurrent with, or 24 h after nab-paclitaxel or bevacizumab treatment.

[4] = system: human PC3 prostate cancer xenograft; assay: Subcutaneous PC3 prostate tumor xenograft, tumor growth inhibition; assay type: in vivo, athymic nude mice; details: Avastin 8 mg/kg 2x/wk
Protocol: as §2

[5] = Body weight change in PC3 tumor-bearing mice; assay type: in vivo, athymic nude mice; details: Avastin 8 mg/kg 2x/wk
Protocol: as §2

Row | Compound | Antitumor efficacy, in words [1] | Vascular disrupting activity (VDA), in words ([2]; quail CAM, at concentrations much higher than the effective dose of ABI-011) | IC50, vascular disrupting activity (VDA) ([2]; quail embryonic CAM, scored over 60 min) | LD50, embryonic mortalities ([2]; quail embryos) | TGI, tumor growth inhibition on day 23 [3] | Three-TDT [3] | TGI, tumor growth inhibition on day 23 [4] | BWC, percent body weight change on day 21 [5]
1 | COc1ccc(/C=C\c2cc(OC)c(OC)c(OC)c2)cc1OP(=O)(O)O [CA4P, combretastatin A4 Phosphate] | ineffective | only modest VDA | 13.1 µg/mL | 12.8 µg/mL | – | – | – | –
2 | Avastin: anti-VEGF antibody (bevacizumab) | – | – | – | – | 75.3% | 19.3 days | 52.9% | −24.6%
